Format in all cases: biochemical
One test has as its target T1, cathepsin K (Homo sapiens, UniProt P43235).
T1 sequence (P43235 115-329): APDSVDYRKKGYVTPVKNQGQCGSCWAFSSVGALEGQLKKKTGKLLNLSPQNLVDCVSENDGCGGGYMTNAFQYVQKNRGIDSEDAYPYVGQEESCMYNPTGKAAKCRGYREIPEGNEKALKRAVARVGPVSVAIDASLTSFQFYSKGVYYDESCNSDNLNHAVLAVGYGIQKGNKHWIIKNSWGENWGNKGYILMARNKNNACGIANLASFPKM
Kind of test: Inhibitory activity assay against cathepsin K (enzyme assay). Particulars: Z-Phe-Arg-AMC 10 μM, enzyme 1 nM, pH 5.5, 30 minutes. As for the experimental part: In order to measure the enzyme activity of cathepsin K, a buffer solution (pH 5.5) consisting of 50 mM 2-(N-morpholino)ethanesulfonic acid (MES), 2 mM dithiothreitol (DTT), 2.5 mM ethylenediaminetetraacetic acid (EDTA), 0.01% Triton X-100, and 10% dimethyl sulfoxide (DMSO) was prepared. The substrate, the test material, and the enzyme were mixed in the buffer solution in a predetermined concentration. The Z-Phe-Arg-AMC substrate was used in the final concentration of 10 μM. The test material was used in the final concentrations of 10.0 μM, 3.33 μM, 1.11 μM, 0.370 μM, 0.123 μM, 0.0412 μM, 0.0137 μM, 0.00457 μM, 0.00152 μM, and 0.000508 μM, respectively. The cathepsin K enzyme was used in the final concentration of 1 nM. The final volume of the enzyme reaction solution was 10 μL. After reacting the mixture of substrate, test material, and enzyme for 30 minutes, the enzyme activity was measured with the Synergy Neo (Biotek) microplate reader at an absorption wavelength of 355 nm and an emission wavelength of 460 nm. IC50 values were determined using 4-parameter logistic curve fit program of GraphPad Prism.

For a further test, the target named is cathepsin B (Homo sapiens, UniProt P07858). Kind of test: Inhibitory activity assay against cathepsin B (enzyme assay). Particulars: Z-Arg-Arg-AMC 40 μM, enzyme 1 nM, pH 6.0, 90 minutes. The protocol:
In order to measure the enzyme activity of cathepsin B, a buffer solution (pH 6.0) consisting of 50 mM MES, 5 mM DTT, 2.5 mM EDTA, 0.005% Polysorbate 20, and 10% DMSO was prepared. The substrate, the test material, and the enzyme were mixed in the buffer solution in a predetermined concentration. The Z-Arg-Arg-AMC substrate was used in the final concentration of 40 μM. The test material was used in the final concentrations of 10.0 μM, 3.33 μM, 1.11 μM, 0.370 μM, 0.123 μM, 0.0412 μM, 0.0137 μM, 0.00457 μM, 0.00152 μM, and 0.000508 μM, respectively. The cathepsin B enzyme was used in the final concentration of 1 nM. The final volume of the enzyme reaction solution was 10 μL. After reacting the mixture of substrate, test material, and enzyme for 90 minutes, the enzyme activity was measured with the EnVision (Perkin Elmer) microplate reader at an absorption wavelength of 340 nm and an emission wavelength of 460 nm. IC50 values were determined using 4-parameter logistic curve fit program of GraphPad Prism.

Another test concerns the target cathepsin L (Homo sapiens, UniProt P07711). Kind of test: Inhibitory activity assay against cathepsin L (enzyme assay). Particulars: Z-Phe-Arg-AMC 2 μM, enzyme 3 nM, pH 5.5, 30 minutes. The protocol: In order to measure the enzyme activity of cathepsin L, a buffer solution (pH 5.5) consisting of 50 mM MES, 2.5 mM DTT, 2.5 mM EDTA, 0.005% Polysorbate 20, and 10% DMSO was prepared. The substrate, the test material, and the enzyme were mixed in the buffer solution in a predetermined concentration. The Z-Phe-Arg-AMC substrate was used in the final concentration of 2 μM. The test material was used in the final concentrations of 10.0 μM, 3.33 μM, 1.11 μM, 0.370 μM, 0.123 μM, 0.0412 μM, 0.0137 μM, 0.00457 μM, 0.00152 μM, and 0.000508 μM, respectively. The cathepsin L enzyme was used in the final concentration of 3 nM. The final volume of the enzyme reaction solution was 10 μL. After reacting the mixture of substrate, test material, and enzyme for 30 minutes, the enzyme activity was measured with the EnVision (Perkin Elmer) microplate reader at an absorption wavelength of 340 nm and an emission wavelength of 460 nm. IC50 values were determined using 4-parameter logistic curve fit program of GraphPad Prism.

In another test the target is cathepsin S (Homo sapiens, UniProt P25774). The experiment in a line: Inhibitory activity assay against cathepsin S (enzyme assay). As to conditions: Z-Phe-Arg-AMC 70 μM, enzyme 3 nM, pH 6.5, 45 minutes. The protocol:
In order to measure the enzyme activity of cathepsin S, a buffer solution (pH 6.5) consisting of 50 mM MES, 2.5 mM DTT, 1.0 mM EDTA, 0.001% bovine serum albumin (BSA), and 10% DMSO was prepared. The substrate, the test material, and the enzyme were mixed in the buffer solution in a predetermined concentration. The Z-Phe-Arg-AMC substrate was used in the final concentration of 70 μM. The test material was used in the final concentrations of 10.0 μM, 3.33 μM, 1.11 μM, 0.370 μM, 0.123 μM, 0.0412 μM, 0.0137 μM, 0.00457 μM, 0.00152 μM, and 0.000508 μM, respectively. The cathepsin S enzyme was used in the final concentration of 3 nM. The final volume of the enzyme reaction solution was 10 μL.
After reacting the mixture of substrate, test material, and enzyme for 45 minutes, the enzyme activity was measured with the EnVision (Perkin Elmer) microplate reader at an absorption wavelength of 340 nm and an emission wavelength of 460 nm. IC50 values were determined using 4-parameter logistic curve fit program of GraphPad Prism.

Structures are written as SMILES.

As usually defined, the IC50 is the midpoint of a concentration-inhibition curve.

Chain of cathepsin S (P25774 115-331, species assumed): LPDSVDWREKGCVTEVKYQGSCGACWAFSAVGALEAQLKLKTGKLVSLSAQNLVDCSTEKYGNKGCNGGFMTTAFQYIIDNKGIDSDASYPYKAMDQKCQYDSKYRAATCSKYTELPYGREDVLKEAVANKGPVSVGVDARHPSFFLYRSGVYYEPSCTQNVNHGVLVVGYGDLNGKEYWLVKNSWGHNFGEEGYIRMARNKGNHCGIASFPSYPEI
Chain of cathepsin L (P07711 114-333, species assumed): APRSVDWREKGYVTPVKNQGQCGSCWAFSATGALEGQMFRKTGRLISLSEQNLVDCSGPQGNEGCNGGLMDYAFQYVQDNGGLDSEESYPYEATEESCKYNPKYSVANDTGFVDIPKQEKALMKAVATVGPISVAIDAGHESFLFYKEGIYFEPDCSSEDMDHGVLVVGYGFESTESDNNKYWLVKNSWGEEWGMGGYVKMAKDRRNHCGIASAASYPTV

On to `COc1ccc(COC(=O)NC2(c3ccnc(C#N)n3)CCCCC2)cc1` [Example 25, 4-methoxybenzyl (1-(2-cyanopyrimidin-4-yl)cyclohexyl)carbamate], for which the IC50 at cathepsin K was 41 nM; against cathepsin B, > 10000 nM; against cathepsin L it was > 10000 nM; on cathepsin S, > 10000 nM.

On to `N#Cc1nccc(C2(NC(=O)OCc3cccc4ccccc34)CCCCC2)n1` [Example 26, naphthalen-1-ylmethyl (1-(2-cyanopyrimidin-4-yl)cyclohexyl)carbamate], for which the IC50 at cathepsin K was 61.7 nM; against cathepsin B it was > 10000 nM; at cathepsin L, 5950 nM; against cathepsin S, > 10000 nM.

With `N#Cc1nccc(C2(NC(=O)OCc3ccc(F)cc3)CCCCC2)n1` [Example 27, 4-fluorobenzyl (1-(2-cyanopyrimidin-4-yl)cyclohexyl)carbamate], the IC50 on cathepsin K was 22.4 nM; on cathepsin B, > 10000 nM; on cathepsin L, 895 nM; against cathepsin S it was 7780 nM.

Take `N#Cc1nccc(C2(NC(=O)OCc3ccccc3Cl)CCCCC2)n1` [Example 28, 2-chlorobenzyl (1-(2-cyanopyrimidin-4-yl)cyclohexyl)carbamate]: the IC50 at cathepsin K was 35.8 nM; against cathepsin B, > 10000 nM; against cathepsin L, 8780 nM; against cathepsin S, > 10000 nM.

Regarding `CS(=O)(=O)c1ccc(-c2ccc(COC(=O)NC3(c4ccnc(C#N)n4)CCCC3)cc2)cc1` [Example 29, (4′-(methylsulfonyl)-[1,1′-biphenyl]-4-yl)methyl (1-(2-cyanopyrimidin-4-yl)cyclopentyl)carbamate], the IC50 is 1570 nM at cathepsin K, > 10000 nM at cathepsin B, > 10000 nM against cathepsin L and > 10000 nM on cathepsin S.

For the molecule `CS(=O)(=O)c1ccc(-c2cccc(COC(=O)NC3(c4ccnc(C#N)n4)CCCC3)c2)cc1` [Example 30, (4′-(methylsulfonyl)-[1,1′-biphenyl]-3-yl)methyl (1-(2-cyanopyrimidin-4-yl)cyclopentyl)carbamate], the IC50 is 355 nM on cathepsin K, > 10000 nM at cathepsin B, > 10000 nM against cathepsin L and 9450 nM on cathepsin S.

As to `N#Cc1nccc(C2(NC(=O)OCc3ccc(-c4ccc(N5CCOCC5)cc4)cc3)CCCC2)n1` [Example 31, (4′-morpholino-[1,1′-biphenyl]-4-yl)methyl (1-(2-cyanopyrimidin-4-yl)cyclopentyl)carbamate], the IC50 on cathepsin K is 934 nM; against cathepsin B, > 10000 nM; against cathepsin L, > 10000 nM; against cathepsin S, > 10000 nM.

For the molecule `N#Cc1nccc(C2(NC(=O)OCc3ccc(-c4ccc(F)nc4)cc3)CCCC2)n1` [Example 33, 4-(6-fluoropyridin-3-yl)benzyl (1-(2-cyanopyrimidin-4-yl)cyclopentyl)carbamate], the IC50 at cathepsin K is 1620 nM; against cathepsin B, > 10000 nM; on cathepsin L it was > 10000 nM; against cathepsin S, > 10000 nM.

In the case of `N#Cc1nccc(C2(NC(=O)OCc3cccc(-c4ccc(F)nc4)c3)CCCC2)n1` [Example 35, 3-(6-fluoropyridin-3-yl)benzyl (1-(2-cyanopyrimidin-4-yl)cyclopentyl)carbamate], the 50% inhibitory concentration (IC50) is 492 nM on cathepsin K, > 10000 nM against cathepsin B, > 10000 nM against cathepsin L and > 10000 nM on cathepsin S.

Consider `Cn1ncc2ccc(-c3cccc(COC(=O)NC4(c5ccnc(C#N)n5)CCCC4)c3)cc21` [Example 36, 3-(1-methyl-1H-indazol-6-yl)benzyl (1-(2-cyanopyrimidin-4-yl)cyclopentyl)carbamate], for which the IC50 at cathepsin K was 31.9 nM; on cathepsin B it was > 10000 nM; against cathepsin L it was > 10000 nM; against cathepsin S, 7350 nM.

On to `Cc1cccc(NC(=O)NC2(c3ccnc(C#N)n3)CCCC2)c1` [Example 38, 1-(1-(2-cyanopyrimidin-4-yl)cyclopentyl)-3-(meta-tolyl)urea], for which the IC50 at cathepsin K was 69.6 nM; against cathepsin B it was > 10000 nM; against cathepsin L, 8060 nM; against cathepsin S, > 10000 nM.

Consider `N#Cc1nccc(C2(NC(=O)NCc3ccccc3F)CCCC2)n1` [Example 40, 1-(1-(2-cyanopyrimidin-4-yl)cyclopentyl)-3-(2-fluorobenzyl)urea], for which the concentration for half-maximal inhibition (IC50) on cathepsin K is 93.3 nM; against cathepsin B, > 10000 nM; at cathepsin L, 9230 nM; against cathepsin S, > 10000 nM.

For the molecule `N#Cc1nccc(C2(NC(=O)Nc3ccccc3)CCCC2)n1` [Example 41, 1-(1-(2-cyanopyrimidin-4-yl)cyclopentyl)-3-phenylurea], the IC50 on cathepsin K was 39.9 nM; at cathepsin B, > 10000 nM; against cathepsin L, 8180 nM; at cathepsin S, > 10000 nM.

With `N#Cc1nccc(C2(NC(=O)NCc3ccccc3)CCCC2)n1` [Example 42, 1-benzyl-3-(1-(2-cyanopyrimidin-4-yl)cyclopentyl)urea], the half-maximal inhibitory concentration (IC50) at cathepsin K is 31.2 nM; against cathepsin B, > 10000 nM; on cathepsin L, 7540 nM; on cathepsin S, > 10000 nM.

For `N#Cc1nccc(C2(NC(=O)NCc3ccc4c(c3)OCO4)CCCC2)n1` [Example 43, 1-(benzo[d][1,3]dioxol-5-ylmethyl)-3-(1-(2-cyanopyrimidin-4-yl)cyclopentyl)urea], the IC50 was 462 nM on cathepsin K, > 10000 nM at cathepsin B, > 10000 nM at cathepsin L and > 10000 nM at cathepsin S.

For `N#Cc1nccc(C2(NC(=O)Nc3ccc(Oc4ccccc4)cc3)CCCC2)n1` [Example 44, 1-(1-(2-cyanopyrimidin-4-yl)cyclopentyl)-3-(4-phenoxyphenyl)urea], the IC50 on cathepsin K is 18.5 nM; at cathepsin B, > 10000 nM; at cathepsin L, > 10000 nM; against cathepsin S, > 10000 nM.

Regarding `Cc1ccccc1CNC(=O)NC1(c2ccnc(C#N)n2)CCCC1` [Example 46, 1-(1-(2-cyanopyrimidin-4-yl)cyclopentyl)-3-(2-methylbenzyl)urea], the half-inhibitory concentration (IC50) at cathepsin K is 13.2 nM; against cathepsin B, > 10000 nM; against cathepsin L, 5970 nM; against cathepsin S, > 10000 nM.

As for `Cc1ccc(CNC(=O)NC2(c3ccnc(C#N)n3)CCCC2)cc1` [Example 48, 1-(1-(2-cyanopyrimidin-4-yl)cyclopentyl)-3-(4-methylbenzyl)urea], the 50% inhibitory concentration (IC50) was 49.6 nM at cathepsin K, > 10000 nM against cathepsin B, > 10000 nM against cathepsin L and > 10000 nM against cathepsin S.

For the origin of these results see US11299478B2, “2-cyanopyrimidin-4-yl carbamate or urea derivative or salt thereof, and pharmaceutical composition including same” (HANLIM PHARMACEUTICAL CO., LTD., priority 2018, dated 2022).
